According to patent US8277810B2, “Antagonist anti-CD40 antibodies” (Novartis Vaccines & Diagnostics, Inc., priority 2003, dated 2012):

Legend:
IM-9 tumor cells [1] = test: IM-9 multiple myeloma xenograft, unstaged conditional survival model; design: species or system SCID mice; conditions: mouse, in vivo
Procedure: (§1) SCID mice were inoculated subcutaneously with IM-9 tumor cells (a human multiple myeloma cell line expressing both CD40 and CD20) in 50% […]™ at 5×10^6 cells per mouse. In unstaged models, treatment was initiated one day after tumor implantation. In staged models, treatment was initiated when tumor volume reached 150-200 mm^3. Tumor-bearing mice were injected with anti-CD40 mAb intraperitoneally once a week at the indicated doses. Data were analyzed using the log-rank test.

IM-9 tumor cells [2] = test: IM-9 multiple myeloma xenograft, staged subcutaneous model; type: in vivo, SCID mice
Procedure: as §1, with “Tumor-bearing mice were injected with anti-CD40 mAb intraperitoneally once a week at the indicated doses.” left out

Namalwa tumors = test: Staged human NHL Namalwa xenograft model; type: in vivo, T cell-deficient nude mice; conditions: CHIR-12.12 1 mg/kg ip once a week for 4 weeks; IL-2 0.5 mg/kg sc daily for 8 days; N=10 mice/group
Description: Therefore, the component of these mAbs' anti-tumor activity based on blocking the tumor proliferation/survival signal is not expected to contribute to anti-tumore efficacy in these models.
To ensure consistent tumor growth, T cell-deficient nude mice were whole-body irradiated at 3 Gy to further suppress the immune system one day before tumor inoculation. Tumor cells were inoculated subcutaneously in the right flank at 5×10^6 cells per mouse. Treatment was initiated when tumor volume reached about 100-200 mm^3 (about 7 days after tumor inoculation). […] Tumor volumes were recorded twice a week. Data were analyzed using ANOVA.

Molecule: CC(C)C[C@H](NC(=O)[C@H](Cc1ccccc1)NC(=O)c1cnccn1)B(O)O [bortezomib]
- outcome of treated group (IM-9 tumor cells [1]): euthanized between day 18 and day 26
- tumor growth inhibition (IM-9 tumor cells [2]; 0.5 mg/kg twice a week): did not inhibit tumor growth
- tumor growth inhibition (IM-9 tumor cells [2]; MTD 1 mg/kg twice a week): 30%

Molecule: IL-2: IL-2 used in the xenograft example; b966 says des-alanyl-1, serine-125 human IL-2 is used in the examples
- growth of Namalwa tumors, single agent (Namalwa tumors): inhibited the growth of Namalwa tumors
